From patent US11878966B2, “Substituted 4-benzyl and 4-benzoyl piperidine derivates” (89BIO LTD, priority 2015, dated 2024) come the findings set out here.

The target of data set [1] is T1, recombinant human baculovirus-expressed GST-tagged FASN (Homo sapiens, UniProt P49327).
T1 construct: GST; host or cells: baculovirus expression system (insect cells implied)
The data set can be described thus: FASN enzyme activity assay: fluorescence-based detection of CoA with CPM. It counts as biochemical. The conditions noted are these: 5 nM FASN, 150 μM NADPH, 10 μM acetyl-CoA, 25 μM malonyl-CoA, 90 minutes incubation. Summed up:
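GST-tagged human FASN (5 nM, baculovirus-expressed) in 50 mM HEPES pH 7.5 with 150 μM NADPH, 10 μM acetyl-CoA and 25 μM malonyl-CoA, 0.5% DMSO, started with malonyl-CoA and run 90 min. CoA was detected with CPM (30 min; ex 390/em 530 nm). IC50 came from sigmoidal variable-slope fits of % inhibition.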

T1 sequence (P49327 whole entry): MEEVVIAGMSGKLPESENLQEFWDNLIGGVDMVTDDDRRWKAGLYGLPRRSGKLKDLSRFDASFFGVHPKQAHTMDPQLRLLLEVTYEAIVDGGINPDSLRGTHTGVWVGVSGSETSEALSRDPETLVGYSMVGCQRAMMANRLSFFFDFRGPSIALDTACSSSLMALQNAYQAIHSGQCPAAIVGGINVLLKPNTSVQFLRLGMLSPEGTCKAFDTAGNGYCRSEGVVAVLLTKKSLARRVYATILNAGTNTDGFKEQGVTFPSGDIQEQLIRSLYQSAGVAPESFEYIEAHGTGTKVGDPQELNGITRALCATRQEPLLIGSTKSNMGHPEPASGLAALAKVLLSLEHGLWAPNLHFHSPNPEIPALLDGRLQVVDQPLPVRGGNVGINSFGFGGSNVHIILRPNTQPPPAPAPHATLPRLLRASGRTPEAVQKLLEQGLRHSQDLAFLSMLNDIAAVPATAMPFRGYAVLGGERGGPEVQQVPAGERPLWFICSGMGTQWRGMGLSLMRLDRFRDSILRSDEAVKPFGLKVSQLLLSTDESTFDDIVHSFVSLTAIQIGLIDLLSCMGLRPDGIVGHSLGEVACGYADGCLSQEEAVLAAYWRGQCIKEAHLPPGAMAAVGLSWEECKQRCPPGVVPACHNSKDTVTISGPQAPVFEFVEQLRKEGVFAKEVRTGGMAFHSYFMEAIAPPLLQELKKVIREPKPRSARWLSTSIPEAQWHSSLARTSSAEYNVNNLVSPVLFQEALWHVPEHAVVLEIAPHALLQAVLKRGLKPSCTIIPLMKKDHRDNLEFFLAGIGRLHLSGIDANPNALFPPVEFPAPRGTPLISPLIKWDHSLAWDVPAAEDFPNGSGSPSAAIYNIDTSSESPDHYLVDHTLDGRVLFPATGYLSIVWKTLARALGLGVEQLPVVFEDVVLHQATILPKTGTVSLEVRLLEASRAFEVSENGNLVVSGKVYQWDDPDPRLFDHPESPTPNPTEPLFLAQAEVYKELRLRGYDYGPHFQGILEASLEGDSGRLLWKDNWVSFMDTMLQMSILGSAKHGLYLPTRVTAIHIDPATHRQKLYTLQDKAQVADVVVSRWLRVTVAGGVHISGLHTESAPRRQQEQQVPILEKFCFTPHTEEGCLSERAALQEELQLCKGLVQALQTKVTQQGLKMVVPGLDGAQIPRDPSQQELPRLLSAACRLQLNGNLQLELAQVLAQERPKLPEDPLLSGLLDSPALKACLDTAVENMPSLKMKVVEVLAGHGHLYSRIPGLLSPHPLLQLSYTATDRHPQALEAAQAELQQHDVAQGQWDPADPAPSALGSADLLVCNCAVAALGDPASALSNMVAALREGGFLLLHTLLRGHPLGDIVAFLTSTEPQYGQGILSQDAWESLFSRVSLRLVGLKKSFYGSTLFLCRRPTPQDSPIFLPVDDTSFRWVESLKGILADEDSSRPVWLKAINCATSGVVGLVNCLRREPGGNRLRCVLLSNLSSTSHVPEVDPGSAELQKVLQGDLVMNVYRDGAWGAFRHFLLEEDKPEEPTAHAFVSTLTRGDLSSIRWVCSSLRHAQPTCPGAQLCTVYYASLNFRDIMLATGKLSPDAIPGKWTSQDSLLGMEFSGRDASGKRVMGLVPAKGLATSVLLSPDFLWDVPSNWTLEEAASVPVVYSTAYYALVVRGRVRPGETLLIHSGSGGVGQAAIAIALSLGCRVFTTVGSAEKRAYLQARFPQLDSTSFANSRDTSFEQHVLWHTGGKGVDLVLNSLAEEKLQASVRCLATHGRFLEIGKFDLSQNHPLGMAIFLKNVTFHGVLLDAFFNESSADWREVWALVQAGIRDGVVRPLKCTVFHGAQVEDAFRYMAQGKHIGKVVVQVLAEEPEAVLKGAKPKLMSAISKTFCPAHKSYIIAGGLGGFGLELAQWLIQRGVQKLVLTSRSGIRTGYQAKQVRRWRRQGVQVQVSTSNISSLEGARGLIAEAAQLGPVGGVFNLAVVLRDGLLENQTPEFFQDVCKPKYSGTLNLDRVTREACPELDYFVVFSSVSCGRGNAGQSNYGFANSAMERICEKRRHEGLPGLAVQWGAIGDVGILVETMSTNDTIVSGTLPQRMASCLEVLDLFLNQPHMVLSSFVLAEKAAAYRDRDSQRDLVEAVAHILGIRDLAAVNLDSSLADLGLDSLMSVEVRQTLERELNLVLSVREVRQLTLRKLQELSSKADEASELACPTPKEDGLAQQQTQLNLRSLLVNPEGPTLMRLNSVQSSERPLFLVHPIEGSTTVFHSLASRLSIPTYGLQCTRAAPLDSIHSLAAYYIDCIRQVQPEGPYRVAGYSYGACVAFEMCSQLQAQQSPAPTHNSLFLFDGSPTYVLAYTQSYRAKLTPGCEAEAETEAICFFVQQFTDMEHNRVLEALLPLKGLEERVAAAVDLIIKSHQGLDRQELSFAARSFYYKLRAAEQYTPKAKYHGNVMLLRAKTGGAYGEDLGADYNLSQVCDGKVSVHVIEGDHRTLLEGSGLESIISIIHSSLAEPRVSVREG

Molecule `CCC(=O)N1CCC(O)(Cc2ccc(-c3ccc4cccnc4c3)cc2)CC1` [Example 150, 1-(4-hydroxy-4-(4-(quinolin-7-yl)benzyl)piperidin-1-yl)propan-1-one] returned a melting point of 171 °C. In addition, the IC50 in data set [1] lay within 100 to 999 nM.

On to `CC(C)C(=O)N1CCC(O)(Cc2ccc(-c3cncc4ccccc34)cc2)CC1` [Example 159, 1-(4-hydroxy-4-(4-(isoquinolin-4-yl)benzyl)piperidin-1-yl)-2-methylpropan-1-one], for which the melting point was found to be 196 °C. Also, the IC50 in data set [1] is 1000 to 10000 nM.

`CC(C)C(=O)N1CCC(O)(Cc2ccc(-c3ccc4occc4c3)cc2)CC1` [Example 153, 1-(4-(4-(benzofuran-5-yl)benzyl)-4-hydroxypiperidin-1-yl)-2-methylpropan-1-one] gave a melting point of 129 °C. Further, the IC50 in data set [1] fell in the range of 1000 to 10000 nM.

On to `CC(C)C(=O)N1CCC(O)(Cc2ccc(-c3ccc4[nH]ccc4c3)cc2)CC1` [Example 155, 1-(4-(4-(1H-indol-5-yl)benzyl)-4-hydroxypiperidin-1-yl)-2-methylpropan-1-one], for which the melting point was determined as 176 °C. In data set [1], the IC50 was 1000 to 10000 nM.

Molecule `CC(C)C(=O)N1CCC(O)(Cc2ccc(-c3ccc4cccnc4c3)cc2)CC1` [Example 151, 1-(4-hydroxy-4-(4-(quinolin-7-yl)benzyl)piperidin-1-yl)-2-methylpropan-1-one] came in with a melting point of 153 °C. For the same molecule, the IC50 in data set [1] lay in the range of 1000 to 10000 nM.

The molecule `CC(C)C(=O)N1CCC(O)(Cc2ccc(-c3ccc4cnccc4c3)cc2)CC1` [Example 147, 1-[4-Hydroxy-4-(4-isoquinolin-6-yl-benzyl)-piperidin-1-yl]-2-methyl-propan-1-one] returned a melting point of 175 °C. Also, the IC50 in data set [1] lay in the range of 1000 to 10000 nM.

Molecule `CCC(=O)N1CCC(C2(c3ccc(-c4cnc5ccccc5c4)cc3)CC2)CC1` [Example 40, 1-{4-[1-(4-quinolin-3-yl-phenyl)-cyclopropyl]-piperidin-1-yl}-propan-1-one] gave a melting point of 153 to 155 °C. The IC50 in data set [1] lay within 1 to 99 nM.

In general, IC50 refers to the concentration that inhibits the measured activity by half. As usually defined, the melting point is the temperature of the solid-liquid transition.
